According to US12371453B2, “Polypeptide having antibacterial activity, composition for preventing or treating sepsis comprising same, and antibacterial composition” (priority 2019, dated 2025):
pKd: −log10 of the molar value. Like-named read-outs stand apart in the source and are kept apart here.

Key:
[1] = LPS binding affinity by Isothermal Titration Calorimeter (ITC); set-up: species or system E. coli K1; details: for LPS binding affinity (in words): compared with FP1 (wild type, WT); for pKd: peptide binding to LPS, read-out: Kd (calculated by ITC)
From the text: FPT (ADK 44-54) is denoted by wild type (WT), and peptides in which a point mutation occurred at various sites in WT were manufactured (FP3, FP5, FP6, and FP9). To increase the interaction with LPS in a residue sequence of FP3, peptides were designed based on FP3- and LPS-binding models (FP12-NH2 and FP13-NH2), and peptides were designed by additionally introducing a non-natural amino acid and an amino acid isomer (allomeric D-type amino acid) (allD FP12-NH2, allD FP13-NH2, allD FP-13-9a, allD FP-13-9w, allD FP-13-9k, and allD FP13-NH2 (AcOH)). In addition, an N-terminus PEGylated peptide (PEG-alld FP13-NH2 (AcOH)) was additionally designed, synthesized, and provided by ANYGEN, Co. Ltd. The binding affinity between each of the provided peptides and lipopolysaccharide (LPS) was confirmed through measuring the binding affinity (Kd) using Isothermal Titration Calorimeter (ITC).
Specifically, a method of analyzing binding affinity (Kd) between a peptide and LPS is as follows.
Measurement was carried out using a Malvern MicroCal PEAQ-ITC cell instrument, and the following pretreatment was carried out to confirm interaction with LPS. The amount and morphology of a sample cell are 300 μL and coin-shaped, fixed-in-place, respectively; a syringe rotation rate was 1,200 rpm; and a temperature was 30° C., 35° C. or 25° C.
Before the experiment, LPS and the peptide were previously diluted with PBS, thereby preparing 2 mM LPS and 0.2 mM peptide. 300 μL of the peptide was added into cells in the ITC instrument, which had been washed, and 40 μL of LPS was put into a syringe. After measurement conditions for ITC (temperature, number of injections) were set, the syringe was inserted into the cell, and ITC measurement was started. When the measurement was completed, analysis is performed, and the Kd values of LPS and the peptide were calculated.

[2] = test system: Colistin resistant AB (Acinetobactor baumannii); details: colistin resistant A. baumannii
Experimental: (§1) The antibacterial activity was evaluated according to an antibacterial activity test method for measuring the minimum inhibitory concentration 50 (MIC50; the minimal concentration that kills 50% of bacteria).
(§2) More specifically, 100 μL of a medium was dispensed into each well of a 96-well plate, and in the first column, an antibiotic and a peptide in 200 μL of the medium were dispensed. 1/2 serial dilution was performed from columns 1 to 11 and five types of antibiotic-resistant bacteria (ESBL-resistant E. coli, carbapenem-resistant A. baumannii, carbapenem-resistant Klebsiella pneumoniae, carbapenem-resistant Pseudomonas aeruginosa, colistin-resistant Acinetobactor baumannii), which had been previously cultured, were diluted (OD600 nm value in dilution: approximately 0.0025) and dispensed into each well. The plate was incubated in a 37° C. incubator for 4 hours, and measured at OD600 nm.

CR-Klebsiella pneumoniae = details: CR-K. pneumoniae
Experimental: as §1, §2

ESBL (E. coli) = details: ESBL E. coli
Experimental: as §1, §2

[3] = test system: Carbapenem resistant (CR)-Acinetobactor baumannii; assay: organism not typed; details: for MIC50, Carbapenem resistant (CR)-Acinetobactor baumannii: CR-A. baumannii
Experimental: as §1, §2

[4] = test system: Acinetobacter baumannii (ATCC 19606); assay: microbe, parasite or virus in culture; details: Acinetobacter baumannii
Experimental: (§3) To compare the antibacterial activity between the four commercially available antibiotics (ampicillin, gentamicin, levofloxacin and imipenem) and the allD FP13-NH2 (AcOH) peptide, an antibacterial activity test was performed to measure the minimum inhibitory concentrations (MIC50 and MIC80) for gram-negative and gram-positive standard strains (Escherichia coli DH5α, Escherichia coli K1, Acinetobacter baumannii, Pseudomonas aeruginosa, Salmonella enteritidis, Salmonella typhimurium, and Klebsiella pneumoniae).
(§4) More specifically, 100 μL of a medium was dispensed into each well of a 96-well plate, and in the first column, an antibiotic and a peptide in 200 μL of the medium were dispensed. 1/2 serial dilution was performed from columns 1 to 11, and gram-negative and gram-positive bacteria which had been previously cultured were diluted (OD600 nm value in dilution: approximately 0.0025) and dispensed into each well. The plate was incubated in a 37° C. incubator for 4 hours, and measured at OD600 nm.

[5] = test system: Escherichia coli DH5α (ATCC PTA-4750); assay: microbe, parasite or virus in culture; details: Escherichia coli, 4 h
Experimental: as §3, §4

[6] = test system: Pseudomanas aeruginosa PAO1 (ATCC 47085D-5); assay: microbe, parasite or virus in culture; details: for MIC: Pseudomonas aeruginosa
Experimental: as §3, §4

[7] = test system: Klebiella pneumoniae (ATCC 13883); assay: microbe, parasite or virus in culture; details: for MIC: Klebsiella pneumoniae
Experimental: as §3, §4

[8] = test system: Salmonela typhimurium (ATCC 53648); assay: microbe, parasite or virus in culture; details: Salmonella enterica
Experimental: as §3, §4

Escherichia coli K1 = assay: microbe, parasite or virus in culture; details: Escherichia coli
Experimental: as §3, §4

[9] = test system: Salmonela enteritidis (ATCC 13076); assay: microbe, parasite or virus in culture; details: Salmonella enterica
Experimental: as §3, §4

[10] = ATCC19606, read-out: MIC (μg/ml) 50%
[11] = ATCC19606, read-out: MIC (μg/ml) 80%
[12] = PAO1, read-out: MIC (μg/ml) 50%
[13] = PAO1, read-out: MIC (μg/ml) 80%
[14] = ATCC13883, read-out: MIC (μg/ml) 50%
[15] = ATCC13883, read-out: MIC (μg/ml) 80%

Row | Compound | LPS binding affinity (in words) [1] | pKd [1] | MIC50, Colistin resistant AB [2] | MIC50, CR-Klebsiella pneumoniae (CR-Klebsiella pneumoniae) | MIC50, ESBL (E. coli) (ESBL (E. coli)) | MIC [4, 10] [µg/mL] | MIC [4, 11] [µg/mL] | MIC ([5]; read-out: MIC (μg/ml) 50%) [µg/mL] | MIC ([5]; read-out: MIC (μg/ml) 80%) [µg/mL] | MIC ([8]; read-out: MIC (μg/ml) 50%) [µg/mL] | MIC ([8]; read-out: MIC (μg/ml) 80%) [µg/mL] | MIC (Escherichia coli K1; K1, read-out: MIC (μg/ml) 50%) [µg/mL] | MIC (Escherichia coli K1; K1, read-out: MIC (μg/ml) 80%) [µg/mL] | MIC ([9]; read-out: MIC (μg/ml) 50%) [µg/mL] | MIC ([9]; read-out: MIC (μg/ml) 80%) [µg/mL] | also measured
1 | klrvklrralr-NH2 [allD FP-13-9a-NH2] | strong LPS binding affinity | 5.02 |  |  |  |  |  |  |  |  |  |  |  |  |  | 
2 | colistin [reference compound] |  |  | No effect | <125 µg/mL | <0.5 µg/mL |  |  |  |  |  |  |  |  |  |  | MIC50, Carbapenem resistant (CR)-Acinetobactor baumannii [3]: <1 µg/mL
3 | C[C@@H](O)[C@H]1C(=O)N2C(C(=O)O)=C(SCCN=CN)C[C@H]12 [Imipenem, imipenem] |  |  | No effect | No effect | No effect | < 8 | < 15 | < 4 | < 8 | < 4 | < 8 | < 0.5 | < 1 | < 4 | < 8 | MIC [6, 12]: < 32 µg/mL; MIC [6, 13]: < 64 µg/mL; MIC [7, 14]: < 2 µg/mL; MIC [7, 15]: < 8 µg/mL; MIC50, Carbapenem resistant (CR)-Acinetobactor baumannii [3]: No effect
4 | CC1(C)S[C@@H]2[C@H](NC(=O)[C@H](N)c3ccccc3)C(=O)N2[C@H]1C(=O)O [Ampicillin, ampicillin] |  |  | No effect | No effect | No effect | < 32 | < 64 | < 2 | < 4 | < 1 | < 2 | < 4 | < 8 | < 4 | < 8 | MIC (μg/ml) 50% ([6]; Pseudomonas aeruginosa PAO1, 50% growth inhibition): no effect; MIC (μg/ml) 80% ([6]; Pseudomonas aeruginosa PAO1, 80% growth inhibition): no effect; MIC (μg/ml) 50% ([7]; Klebsiella pneumoniae ATCC 13883, 50% growth inhibition): no effect; MIC (μg/ml) 80% ([7]; Klebsiella pneumoniae ATCC 13883, 80% growth inhibition): no effect; MIC50 ([3]; read-out: MIC50, Carbapenem resistant (CR)-Acinetobactor baumannii): < 16 µg/mL
5 | KLRVKLRRWLR [allD FP-13-9w-NH2] | strong LPS binding affinity | 4.76 |  |  |  |  |  |  |  |  |  |  |  |  |  | 
6 | KLGVEAKRYLD [FP1(WT), reference compound] |  | 3.62 |  |  |  |  |  |  |  |  |  |  |  |  |  | 
7 | KLGVEAKRYLR [FP3] | strong LPS binding affinity | 3.48 |  |  |  |  |  |  |  |  |  |  |  |  |  | 
8 | LRLGVELKRYLR [FP6] | strong LPS binding affinity | 4.95 |  |  |  |  |  |  |  |  |  |  |  |  |  | 
9 | C[C@H]1COc2c(N3CCN(C)CC3)c(F)cc3c(=O)c(C(=O)O)cn1c23 [Levofloxacin, levofloxacin] |  |  |  |  |  | < 0.5 | < 1 | < 0.5 | < 1 | < 0.5 | < 1 | < 0.5 | < 1 | < 0.5 | < 1 | MIC [6, 12]: < 0.5 µg/mL; MIC [6, 13]: < 1 µg/mL; MIC [7, 14]: < 0.5 µg/mL; MIC [7, 15]: < 1 µg/mL
